Assay results: US10576151B2, “Ciclopirox for use in modulation of glucose homeostasis” (UNIVERSITY OF SOUTH CAROLINA, priority 2015, dated 2020)
Entries after “also recorded” stand apart in the source; their conditions may differ.

Experiments:
[1] = tested on: insulin; test: Western blot of insulin levels in islets in culture; assay type: cell-based, mouse
Protocol: (§1) Western Blotting. The mouse islets were treated with CPX 20 μM for 24 h and lysed in RIPA buffer [50 mM Tris, pH 7.2; 150 mM NaCl; 1% sodium deoxycholate; 0.1% SDS; 1% Triton-X 100; 10 mM NaF; 1 mM Na3VO4; protease inhibitor cocktail (1:1000, Sigma, St. Louis, Mo.)] and were subjected to immunoblot analysis by standard methods. Proteins were resolved on a 10% SDS-PAGE and transferred to a nitrocellulose membrane (Bio-Rad, Hercules, Calif.). Membranes were probed overnight with GADD153 (F-168), sc-575 from Santa Cruz Biotechnology (1:50); p21 (F-5), sc-6246 from Santa Cruz Biotechnology (1:200); actin, clone C4 MAB1501 from Millipore (Billerica, Mass., USA) (1:2000); BiP antibody (cat. no. 3183) from Cell Signaling (Danvers, Mass., USA) (1:1000); GRP94 antibody (H-212), sc-11402 from Santa Cruz Biotechnology (1:500); insulin rabbit polyclonal H-86, sc-9168 from Santa Cruz Biotechnology (1:500) antibodies followed by incubation with horseradish peroxidase-conjugated (HRP) anti-mouse (1:10000), goat anti-rabbit IgG (1:10000, Santa Cruz biotechnology Inc., Santa Cruz, Calif., USA) for 1 hr. After incubation with enhanced chemiluminescence reagents (Santa Cruz biotechnology Inc.), membranes were analyzed using an Image J software for Windows.
(§2) In order to understand better how CPX operates in β cells, it was tested to determine if it affected the efficiency by which insulin is produced following glucose stimulation. […] In view of the antidiabetic activity of CPX in vivo, the inhibition of insulin release appears contradictory. […]
(§3) While modulation of insulin release by CPX constitutes a challenging mechanism by which CPX may affect ER stress, how CPX regulates insulin expression remains obscure. […] To test this hypothesis, islets were exposed to iron citrate, alone or combined with CPX, and the levels were recorded of chaperones BiP, GRP94 and CHOP, as well as of insulin.

[2] = tested on: pancreatic islets; test: Pancreatic islet numbers by histology (H&E); assay type: in vivo; conditions: diabetic mice treated with CPX (FIG. 8)
Source text: (§4) In Vivo Analysis of Anti-Diabetic Effect of CPX. Mice were randomly grouped. A group of C57BI/6 mice 4-5 weeks old, were fed with either a solution of 10% sucrose and a diet containing 40% kcal as a high-fat diet (HFD; Open Source Diets (New Brunswick, N.J., USA) D12451, 40% calories/fat with free access to (10%) sweetened water (sucrose) or a control chow diet containing 10% of kcal as fat (low-fat diet) and drinking water with no added sucrose (control). Mice with a glucose concentration exceeding 180 mg/dL were considered diabetic, after 2 consecutive glucose measurements. The blood glucose levels were measured using an Accu-Check blood glucose monitor (Roche, Indianapolis, Ind., USA) using blood sample collected from the tail vein. Diabetic mice were treated with either treated daily for 20 days by oral gavages with CPX (25 mg/kg) prepared in a solution (4% ethanol, 5.2% Tween 80, and 5.2% PEG 400) or vehicle control. Pancreata were preserved in 10% buffered formalin for later histological examination. Immunostaining. Pancreatic tissue samples were fixed at 10% buffered formalin, processed a defined paraffin-embedding procedure before embedding in paraffin, sectioning into 4-μm tissue sections, and stained with hematoxylin and eosin by standard methods.

[3] = tested on: C57BI/6 mice; test: Intraperitoneal insulin tolerance (insulin sensitivity) test; assay type: in vivo
Protocol: (§5) Glucose Level Determination and Intraperitoneal Insulin Tolerance Test. Mice were fasted for 6 h. Glucose levels of mice were measured by an Accu-Chek Active meter (ROCHE) with blood sample obtained from the tail. For glucose tolerance, mice were injected i.p. with 2 g glucose/kg blood glucose was checked at different time points as indicated (at either 0, 30, 60, 90, 120, 160, 220 min.). For insulin resistance test, mice were injected intraperitoneally at a dose of 0.75 units/kg with human insulin (0.75 U/kg body weight; Sigma) at different time points as indicated, as for glucose tolerance after insulin injection and blood glucose was measured as described.

[4] = tested on: p21-deficient mice; test: Fasting glucose in diet-induced diabetic p21-deficient mice; assay type: in vivo; conditions: CPX as in wt controls, delayed response (FIG. 5A)
Source text: as §4, with “Pancreata were preserved in 10% buffered formalin for later histological examination. Immunostaining. Pancreatic tissue samples were fixed at 10% buffered formalin, processed a defined paraffin-embedding procedure before embedding in paraffin, sectioning into 4-μm tissue sections, and stained with hematoxylin and eosin by standard methods.” left out
as §5, with “Mice were fasted for 6 h.” left out, “For glucose tolerance, mice were injected i.p. with 2 g glucose/kg blood glucose was checked at different time points as indicated (at either 0, 30, 60, 90, 120, 160, 220 min.).” left out, “described. […]” for “described.”

[5] = tested on: pancreatic islets; test: Insulin release from islets following glucose stimulation; assay type: cell-based, mice; conditions: insulin in the media (FIG. 11A)
Protocol: In order to understand better how CPX operates in β cells, it was tested to determine if it affected the efficiency by which insulin is produced following glucose stimulation. […] In view of the antidiabetic activity of CPX in vivo, the inhibition of insulin release appears contradictory. Thus, it was hypothesized that reduced insulin secretion may be linked to reduced ER stress and blunted unfolded protein response, which in turn could explain in the long run the increased survival and functionality of the animals that received CPX. To test this hypothesis, islets were exposed to CPX and high glucose and the levels were tested of chaperones BiP, GRP94 and CHOP that reflect the intensity of the UPR. […] In line with these observations and consistently with the insulin levels in the media (FIG. 11 at A) were also the levels of insulin in the β islets (FIG. 11 at B).

[6] = tested on: BiP, GRP94 and CHOP; test: Western blot of ER stress markers in islets in culture; assay type: cell-based, mouse
Protocol: as §1, §2, §3

[7] = islets, iron citrate with concomitant CPX (FIG. 12A)

Structure (SMILES): Cc1cc(C2CCCCC2)n(O)c(=O)c1 [CPX, 6-cyclohexyl-1-hydroxy-4-methylpyridin-2(1H)-one]
- levels of intracellular insulin ([1]; islets in high glucose-containing media with CPX (FIG. 11B)): moderate suppression
- insulin production [1, 7]: compromised the effects of iron citrate
- islet numbers [2]: increased significantly
- insulin sensitivity ([3]; diabetic mice, CPX vs saline (FIG. 6B)): restored the response of diabetic mice to acute administration of glucose
- insulin sensitivity ([3]; non-diabetic wt mice on normal diet, CPX vs saline (FIG. 7C)): not affected
- glucose regulation (fasting glucose) [4]: responded significantly to CPX in terms of glucose regulation
- release of insulin [5]: strong inhibition of insulin production; also recorded: suppressed the release of insulin
- ER stress induction (BiP, GRP94, CHOP) [6, 7]: compromised the effects of iron citrate
- levels of BiP, GRP94 and CHOP ([6]; wt islets, high glucose with CPX (FIG. 11)): alleviated the levels of BiP, GRP94 and CHOP
